What was measured:
Test in all cases: MIC determination
Format in all cases: cell-based
[1] = system: Ab strain #278 (CDC and FDA AR Bank); settings: Acinetobacter baumannii; Ab AR Bank #278
Experimental: (§1) All bacterial strains listed above were stored at −80° C. All strains were streaked on Mueller-Hinton (MH) plates and allowed to grow at 37° C. overnight. Enough colonies were scraped from the plate and suspended in MH broth with vortexing to reach an attenuance at 600 nm (OD600) of ˜0.5. The resulting culture was diluted 1:1000 and added to the prepared serially doubly diluted compound solutions in 96-well plates. For M. smegmatis, a 1:100 dilution of the bacteria was done in MH. All MIC values were determined using 96-well plates with low evaporation seals at least in duplicate. For each row, one well was reserved for sterile control (which consisted of 200 μL of MH medium) and another well was reserved for growth control (which consisted of 100 μL of MH medium seeded with 100 μL of bacterial culture).
(§2) Then all 46 compounds were tested against a broad panel of all 41 Ab strains from the CDC and FDA Antibiotic Resistance (AR) Isolate Bank (Table 2; data shown for 2 representative compounds), which were all highly multidrug-resistant strains, including those resistant to colistin. […] The activity of the monohydrazides was not dependent on the extent (number of resistance mutations) or severity (antibiotic MIC) of resistance. All conclusions made from Table 1 remained valid for all compounds against these 41 additional Ab strains. […] This mechanism of action will be elucidated in the proposed studies.

[2] = system: Ab strain #280 (CDC and FDA AR Bank); settings: Acinetobacter baumannii; Ab AR Bank #280
Experimental: as §1, §2

[3] = system: Ab strain #294 (CDC and FDA AR Bank); settings: Acinetobacter baumannii; Ab AR Bank #294
Experimental: as §1, §2

[4] = system: Ab strain #298 (CDC and FDA AR Bank); settings: Acinetobacter baumannii; Ab AR Bank #298
Experimental: as §1, §2

[5] = system: Ab strain #301 (CDC and FDA AR Bank); settings: Acinetobacter baumannii; Ab AR Bank #301
Experimental: as §1, §2

[6] = system: Ab strain #291 (CDC and FDA AR Bank); settings: Acinetobacter baumannii; Ab AR Bank #291
Experimental: as §1, §2

[7] = system: Ab strain #286 (CDC and FDA AR Bank); settings: Acinetobacter baumannii; Ab AR Bank #286
Experimental: as §1, §2

[8] = system: Ab strain #282 (CDC and FDA AR Bank); settings: Acinetobacter baumannii; Ab AR Bank #282
Experimental: as §1, §2

[9] = system: Ab strain #305 (CDC and FDA AR Bank); settings: Acinetobacter baumannii; Ab AR Bank #305
Experimental: as §1, §2

[10] = system: Ab strain #288 (CDC and FDA AR Bank); settings: Acinetobacter baumannii; Ab AR Bank #288
Experimental: as §1, §2

[11] = system: Ab strain #302 (CDC and FDA AR Bank); settings: Acinetobacter baumannii; Ab AR Bank #302
Experimental: as §1, §2

[12] = system: Ab strain #306 (CDC and FDA AR Bank); settings: Acinetobacter baumannii; Ab AR Bank #306
Experimental: as §1, §2

[13] = system: Ab strain #311 (CDC and FDA AR Bank); settings: Acinetobacter baumannii; Ab AR Bank #311
Experimental: as §1, §2

[14] = system: Ab strain #304 (CDC and FDA AR Bank); settings: Acinetobacter baumannii; Ab AR Bank #304
Experimental: as §1, §2

[15] = system: Ab strain #281 (CDC and FDA AR Bank); settings: Acinetobacter baumannii; Ab AR Bank #281
Experimental: as §1, §2

[16] = system: Ab strain #309 (CDC and FDA AR Bank); settings: Acinetobacter baumannii; Ab AR Bank #309
Experimental: as §1, §2

[17] = system: Ab strain #313 (CDC and FDA AR Bank); settings: Acinetobacter baumannii; Ab AR Bank #313
Experimental: as §1, §2

[18] = system: Ab strain #293 (CDC and FDA AR Bank); settings: Acinetobacter baumannii; Ab AR Bank #293
Experimental: as §1, §2

[19] = system: Ab strain #279 (CDC and FDA AR Bank); settings: Acinetobacter baumannii; Ab AR Bank #279
Experimental: as §1, §2

[20] = system: Ab strain #289 (CDC and FDA AR Bank); settings: Acinetobacter baumannii; Ab AR Bank #289
Experimental: as §1, §2

[21] = system: Ab strain #274 (CDC and FDA AR Bank); settings: Acinetobacter baumannii; Ab AR Bank #274
Experimental: as §1, §2

[22] = system: Ab strain #275 (CDC and FDA AR Bank); settings: Acinetobacter baumannii; Ab AR Bank #275
Experimental: as §1, §2

[23] = system: Ab strain #310 (CDC and FDA AR Bank); settings: Acinetobacter baumannii; Ab AR Bank #310
Experimental: as §1, §2

[24] = system: Ab strain #299 (CDC and FDA AR Bank); settings: Acinetobacter baumannii; Ab AR Bank #299
Experimental: as §1, §2

[25] = system: Ab strain #297 (CDC and FDA AR Bank); settings: Acinetobacter baumannii; Ab AR Bank #297
Experimental: as §1, §2

[26] = system: Ab strain #292 (CDC and FDA AR Bank); settings: Acinetobacter baumannii; Ab AR Bank #292
Experimental: as §1, §2

[27] = system: Ab strain #276 (CDC and FDA AR Bank); settings: Acinetobacter baumannii; Ab AR Bank #276
Experimental: as §1, §2

Measured: MIC

O=C(NNc1ccc(Cl)cc1)c1ccc(F)cn1 [Compound 3e]
0.5 µg/mL: [2] | [9] | [13] | [14] | [15] | [21]
0.03 µg/mL: [27]
0.13 µg/mL: [11] | [12] | [18] | [24]
0.06 µg/mL: [6] | [7]
0.25 µg/mL: all other assays above

O=C(NNc1cccc(F)c1)c1cnccn1 [Compound 9a]
0.25 µg/mL: [5] | [6] | [11] | [17] | [18] | [24] | [26]
1 µg/mL: [1] | [2] | [7] | [8] | [10] | [19] | [21]
≤ 0.13 µg/mL: [3] | [14]
0.5 µg/mL: all other assays above

From patent publication US20260041683A1, “Compounds with Anti-Acinetobacter Baumannii Activity” (University of Kentucky Research Foundation, priority 2022, published 2026)
